Series [1] deals with OVCAR-3 human ovarian adenocarcinoma cells. Description: OVCAR-3 tumor cell proliferation inhibition (CellTiter-Glo). The note with it: 3 d culture. In kind it is cell-based. The procedure:
OVCAR-3 was purchased from ATCC; article No.: HTB-161; RPMI1640 was purchased from Gibco; article No.: 11875-093; Pancreatin (including EDTA) was purchased from Gibco; article No.: 25200-072; FBS was purchased from Gibco; Article No.: 10091-148; CellTiter-Glo was purchased from Promega; article No.: G7573; Bovine insulin was purchased from absin; article No.: abs9169; DMSO was purchased from VWR AMRESCO; article No.: 0231-500ML; Staurosporine was purchased from Selleck; article No.: S1421; a cell counter was purchased from CHEMOMETEC; model: NC-200; and a microplate reader was purchased from PerkinElmer; Model: Envison.
(§1) OVCAR-3 was human ovarian adenocarcinoma cells cultured in an RPMI-1640 culture medium containing 20% FBS and 0.01 mg/mL of Bovine insulin. Cells in logarithmic phase were taken, and the cells were subjected to digesting, collecting and counting with pancreatin-EDTA, 2000 OVCAR-3 cells/well were inoculated in a 384-well cell plate, and were cultured in 5% CO2 overnight. A 1000× compound stock solution with 3.16 times of gradient concentration was prepared with DMSO, and was diluted 100 times to 10× compound stock solution with a culture medium, and 10× compound stock solution was added into each cell culture well on the next day after cell inoculation, wherein the final concentration was 1×, and the DMSO content was 0.1%. The cell group was treated with DMSO as an experimental control (control), and the cell group was treated with 5 μM of Staurosporine as a blank control (blank).
(ATP-based viability assays read luminescence as a measure of living cells.)

For series [2], the system named is HCC70 human breast ductal cancer cells. Description: HCC70 tumor cell proliferation inhibition (CellTiter-Glo). To be noted: 3 d culture. In kind it is cell-based. The procedure: HCC70 was purchased from ATCC; article No.: CRL-2315; RPMI1640 was purchased from Gibco; article No.: 11875-093; Pancreatin (including EDTA) was purchased from Gibco; article No.: 25200-072; FBS was purchased from Gibco; article No.: 10099-141C; CellTiter-Glo was purchased from Promega; article No.: G7573; DMSO was purchased from VWR AMRESCO; article No.: 0231-500ML; Staurosporine was purchased from Selleck; article No.: S1421; a cell counter was purchased from CHEMOMETEC; model: NC-200; and a microplate reader was purchased from PerkinElmer; Model: Envison.
as §1, with “HCC70” for “OVCAR-3”, “breast ductal cancer” for “ovarian adenocarcinoma”, “10% FBS.” for “20% FBS and 0.01 mg/mL of Bovine insulin.”

A short description of series [3]: In-vivo pharmacokinetic experiment in male beagles. To be noted: beagle. Details: species or system dog. The procedure:
Experimental method and conditions: male beagles with weight of 8-11 kg were purchased from Jiangsu Marshall Biotechnology Co., Ltd. The to-be-tested compound was administered to 3 dogs at 0.2 mg/kg or 1.0 mg/kg (solvent: 2% DMSO+10% Kolliphor HS 15+88% (6.818% of hydroxypropyl-beta-cyclodextrin aqueous solution), 0.2 mg/mL or 1.0 mg/mL) by intravenous injection, and administered to 3 dogs at 2 mg/kg (solvent: 5% DMSO+95% (10% hydroxypropyl-beta-cyclodextrin salt aqueous solution, 0.4 mg/mL) by oral intragastric administration. Head vein blood sampling was carried out 5 min, 15 min, 30 min, 1 h, 2 h, 4 h, 8 h and 24 h after the administration, and 500 μL of each sample was collected. After collection, the samples were placed on ice, and plasma was centrifugally separated within 15 min for testing. The concentration of the medicine in the plasma was detected by liquid chromatography-tandem mass spectrometry (LC/MS/MS), and pharmacokinetic parameters were calculated with Phoenix WinNonlin software when the concentration was measured.

Where [4] appears, read: male, dog, plasma, intravenous injection 1.0 mg/kg.
[5] abbreviates: male, dog, plasma, oral administration 2 mg/kg.

Usually IC50 stands for the concentration that inhibits the measured activity by half. A low value points to higher potency. As for `CN1CCC(F)(F)CN(C)C2CC[C@@H](C2)Nc2ncc(C(F)(F)F)c(n2)-c2c[nH]c3c(P(C)(C)=O)c(ccc23)C1=O` [Compound Z86, (4^1S,4^3S)-1^7-(dimethylphosphoryl)-7,7-difluoro-5,10-dimethyl-2^5-(trifluoromethyl)-1^1H-3,5,10-triaza-1(3,6)-indola-2(4,2)-pyrimidina-4(1,3)-cyclopentanacycloundecaphan-11-one], the IC50 in series [1] and in series [2] was more than 10 µM in each case.
As for `N#Cc1c2ccc3c(c[nH]c13)-c1nc(ncc1C(F)(F)F)N[C@H]1CC[C@@H](C1)NCCCCNC2=O` [Compound Z23, (4^1S,4^3S)-11-oxo-2^5-(trifluoromethyl)-1^1H-3,5,10-triaza-1(3,6)-indola-2(4,2)-pyrimidina-4(1,3)-cyclopentanacycloundecaphane-17-carbonitrile], the IC50 came out at 0.135 µM in series [1] and 0.0666 µM in series [2].
What is called Cmax is the peak of the concentration-time curve. As usually defined, the AUC(0-inf) is total exposure, with the tail of the curve extrapolated. Low readings indicate low exposure, high ones high exposure. Usually half-life stands for the time needed for the level to fall by half in the phase considered. Lower therefore signals fast loss. With `CC1(C)CC[C@H](Nc2ncc(C(F)(F)F)c(-c3c[nH]c4c(P(C)(C)=O)c(C#N)ccc34)n2)CN1` [Compound 101, reference compound], the “CL” value in series [3] (intravenous injection 1.0 mg/kg) came to 0.87 L/h/kg. Besides, in series [3] (oral administration 2 mg/kg), the “Cmax” value was found to be 0.123 µg/mL and the “F(%)” value was determined as 65.8%. In series [3] (setting [4]), this compound gave an AUC(0-inf) of 1.23 µg·h/mL and a half-life of 6.88 h. Also, the Vd in series [3] (male, dog, plasma, intravenous injection 1.0 mg/kg, read-out: Vss) amounted to 7.57 L/kg. In series [3] (setting [5]), this compound gave an AUC(0-inf) of 1.59 µg·h/mL and a half-life of 6.61 h.
With `COc1cc2c(cn1)-c1ccc3c(c[nH]c3c1)-c1nc(ncc1C(F)(F)F)N[C@H]1CC[C@@H](C1)NCCCC2` [Compound Z73], the half-maximal inhibitory concentration (IC50) worked out at 1.05 µM in series [1] (Homo sapiens, OVCAR-3, 72 h) and 0.233 µM in series [2] (Homo sapiens, HCC70, 72 h).
In the case of `CN1C[C@H](F)CCN(C)[C@H]2CC[C@@H](C2)Nc2ncc(C(F)(F)F)c(n2)-c2c[nH]c3c(P(C)(C)=O)c(ccc23)C1=O` [Compound Z78, (4^1S,4^3S,8R)-1^7-(dimethylphosphoryl)-8-fluoro-5,10-dimethyl-2^5-(trifluoromethyl)-1^1H-3,5,10-triaza-1(3,6)-indola-2(4,2)-pyrimidina-4(1,3)-cyclopentanacycloundecaphan-11-one], the 50% inhibitory concentration (IC50) in series [1] came out at 0.0626 µM; in series [2] it was 0.044 µM.
On to `O=c1cc2c(c[nH]1)-c1ccc3c(c[nH]c3c1)-c1nc(ncc1C(F)(F)F)N[C@H]1CC[C@@H](C1)NCCCC2` [Compound Z74], for which the concentration for half-maximal inhibition (IC50) in series [1] (Homo sapiens, OVCAR-3, 72 h) worked out at 3.46 µM; in series [2] (Homo sapiens, HCC70, 72 h), 1.25 µM.
As for `CN1CCC(F)(F)CN(C)C2CC[C@@H](C2)Nc2ncc(C(F)(F)F)c(n2)-c2c[nH]c3c(P(C)(C)=O)c(ccc23)C1=O` [Compound Z85, (4^1S,4^3S)-1^7-(dimethylphosphoryl)-7,7-difluoro-5,10-dimethyl-2^5-(trifluoromethyl)-1^1H-3,5,10-triaza-1(3,6)-indola-2(4,2)-pyrimidina-4(1,3)-cyclopentanacycloundecaphan-11-one], the IC50 in series [1] worked out at 1.8 µM; in series [2], 0.517 µM.
For `CN1CCC(F)CN(C)C2CC[C@@H](C2)Nc2ncc(C(F)(F)F)c(n2)-c2c[nH]c3c(P(C)(C)=O)c(ccc23)C1=O` (stereo partly drawn) [Compound Z90, (4^1S)-1^7-(dimethylphosphoryl)-7-fluoro-5,10-dimethyl-2^5-(trifluoromethyl)-1^1H-3,5,10-triaza-1(3,6)-indola-2(4,2)-pyrimidina-4(1,3)-cyclopentanacycloundecaphan-11-one] the same measures were more than 10 µM and more than 10 µM.
For `CN1CC(F)(F)CCN(C)C2CCC(C2)Nc2ncc(C(F)(F)F)c(n2)-c2ccc3c(c[nH]c3n2)C1=O` (stereo not drawn) [Compound Z93, (4^1S,4^3S)-8,8-difluoro-5,10-dimethyl-2^5-(trifluoromethyl)-1^1H-3,5,10-triaza-1(3,6)-pyrrolo[2,3-b]pyridine-2(4,2)-pyrimidina-4(1,3)-cyclopentanacycloundecaphan-11-one] the same measures were more than 10 µM and 5.21 µM.
Regarding `CN1CCCCNC2CCC(C2)Nc2ncc(C(F)(F)F)c(n2)-c2c[nH]c3c(P(C)(C)=O)c(ccc23)C1=O` (stereo not drawn) [Compound Z62, (41 S,4^3S)-1^7-(dimethylphosphoryl)-10-methyl-2^5-(trifluoromethyl)-1^1H-3,5,10-triaza-1(3,6)-indola-2(4,2)-pyrimidina-4(1,3)-cyclopentanacycloundecaphan-11-one], the IC50 in series [1] worked out at 0.0159 µM; in series [2] it was 0.0246 µM.
On to `CN1CCC(F)CN(C)C2CC[C@@H](C2)Nc2ncc(C(F)(F)F)c(n2)-c2c[nH]c3c(P(C)(C)=O)c(ccc23)C1=O` (stereo partly drawn) [Compound Z89, (41S)-1^7-(dimethylphosphoryl)-7-fluoro-5,10-dimethyl-2^5-(trifluoromethyl)-1^1H-3,5,10-triaza-1(3,6)-indola-2(4,2)-pyrimidina-4(1,3)-cyclopentanacycloundecaphan-11-one], for which the IC50 in series [1] and in series [2] was more than 10 µM throughout.
Turning to `CP(C)(=O)c1c2ccc3c(c[nH]c13)-c1nc(ncc1C(F)(F)F)N[C@H]1CC[C@@H](C1)NCC[C@H](F)CNC2=O` (single isomer, unassigned) [Compound Z68-2], the IC50 in series [1] stood at 0.00884 µM; in series [2], 0.00318 µM.
Take `CN1CCCCN(C)[C@H]2CC[C@@H](C2)Nc2ncc(C(F)(F)F)c(n2)-c2c[nH]c3nc(ccc23)C1=O` [Compound Z92, (4^1S,4^3S)-5,10-dimethyl-2^5-(trifluoromethyl)-1^1H-3,5,10-triaza-1(3,6)-pyrrolo[2,3-b]pyridina-2(4,2)-pyrimidina-4(1,3)-cyclopentanacycloundecaphan-11-one]: the concentration for half-maximal inhibition (IC50) in series [1] is 0.343 µM; in series [2], 0.107 µM.
For `CN1CC(F)CCNC2CCC(C2)Nc2ncc(C(F)(F)F)c(n2)-c2c[nH]c3c(P(C)(C)=O)c(ccc23)C1=O` [Compound Z77, (4^1S,4^3S,8S)-17-(dimethylphosphoryl)-8-fluoro-10-methyl-2^5-(trifluoromethyl)-1′H-3,5,10-triaza-1(3,6)-indola-2(4,2)-pyrimidina-4(1,3)-cyclopentanacycloundecaphan-11-one] the same measures were 0.0118 µM and 0.00987 µM.
On to `CN1CCOCCN(C)[C@H]2CC[C@@H](C2)Nc2ncc(C(F)(F)F)c(n2)-c2c[nH]c3c(P(C)(C)=O)c(ccc23)C1=O` [Compound Z63, (4^1S,4^3S)-1^7-(dimethylphosphoryl)-5,11-dimethyl-2^5-(trifluoromethyl)-1^1H-8-oxa-3,5,11-triaza-1(3,6)-indola-2(4,2)-pyrimidina-4(1,3)-cyclopentanacyclododecaphan-12-one], for which the IC50 in series [1] amounted to 0.195 µM; in series [2], 0.134 µM.

The values are drawn from patent US20250145632A1, “Pyrimidine Heterocyclic Compound, Preparation Method Thereof and use Thereof in Medicine” (INSILICO MEDICINE IP LIMITED, priority 2021, published 2025).
